According to PMC9504748, “Discovery of Flavonoids as Novel Inhibitors of ATP Citrate Lyase: Structure–Activity Relationship and Inhibition Profiles” (International Journal of Molecular Sciences, 2022):
Read-outs that look alike come from different tables or passages of the source. Blank lines part the entries; values can stand above or below the compound they belong to.

Assays:
ACLY [1] = target: T1, ACLY (Homo sapiens, UniProt P53396); assay: ACLY enzymatic inhibition assay (ADP-Glo Kinase Assay); assay type: biochemical; settings: for IC50: concentration-response curves; for inhibition rate: preliminary screening, concentration of 10 µm;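 on all read-outs here: purified recombinant His-tagged human ACLY, compounds preincubated with enzyme 15 min, then ADP formed measured as luciferase luminescence after ADP-Glo reagent depletes leftover ATP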
T1 construct: His; made in house; host or cells: Escherichia coli BL21(DE3)
T1 sequence (P53396 1-1101): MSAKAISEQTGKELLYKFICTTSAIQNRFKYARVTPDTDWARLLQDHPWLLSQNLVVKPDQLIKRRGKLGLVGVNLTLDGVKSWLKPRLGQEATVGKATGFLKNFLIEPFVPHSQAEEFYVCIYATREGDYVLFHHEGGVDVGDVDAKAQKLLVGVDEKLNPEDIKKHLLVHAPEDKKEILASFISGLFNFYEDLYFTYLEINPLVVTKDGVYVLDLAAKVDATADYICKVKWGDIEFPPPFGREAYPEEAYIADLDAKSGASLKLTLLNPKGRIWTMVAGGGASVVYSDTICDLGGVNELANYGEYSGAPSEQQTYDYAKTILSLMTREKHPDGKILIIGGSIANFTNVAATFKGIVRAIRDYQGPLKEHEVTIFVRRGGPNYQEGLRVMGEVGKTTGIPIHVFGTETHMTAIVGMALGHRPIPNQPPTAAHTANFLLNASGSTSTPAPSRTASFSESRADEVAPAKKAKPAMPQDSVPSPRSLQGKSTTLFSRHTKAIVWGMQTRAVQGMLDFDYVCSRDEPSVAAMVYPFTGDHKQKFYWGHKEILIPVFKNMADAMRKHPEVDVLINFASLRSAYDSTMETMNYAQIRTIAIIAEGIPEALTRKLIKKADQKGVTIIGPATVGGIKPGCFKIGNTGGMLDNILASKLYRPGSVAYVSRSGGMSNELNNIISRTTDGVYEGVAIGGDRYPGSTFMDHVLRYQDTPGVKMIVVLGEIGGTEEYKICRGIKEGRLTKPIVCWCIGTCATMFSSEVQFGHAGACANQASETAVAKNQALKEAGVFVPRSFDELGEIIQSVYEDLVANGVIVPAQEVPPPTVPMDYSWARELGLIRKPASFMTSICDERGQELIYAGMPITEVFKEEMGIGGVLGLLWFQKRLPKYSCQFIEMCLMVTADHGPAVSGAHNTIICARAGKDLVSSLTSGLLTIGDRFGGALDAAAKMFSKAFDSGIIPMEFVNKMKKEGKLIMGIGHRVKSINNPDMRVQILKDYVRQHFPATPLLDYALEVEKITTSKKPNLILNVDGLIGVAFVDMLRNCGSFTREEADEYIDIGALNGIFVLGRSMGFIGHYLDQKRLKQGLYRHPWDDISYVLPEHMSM

ACLY [2] = target: T1, ACLY; settings: cited from earlier work
[3] = Cell-free aggregation assay (DMR, Epic BT system); assay type: physicochemical; settings: for critical aggregation concentration (CAC): reaction buffer, DMR responses at a fixed time
Experimental: The aggregation assay was performed using an Epic BT system (Corning, NY, USA). Reaction buffer (30 μL) was aliquoted in an Epic 384-well microplate (Corning, NY, USA) and equilibrated for 1 h. Then 10 μL compound solution was added and the microplate was placed on the Epic reader. Dynamic mass redistribution (DMR) signals were recorded for 1 h.

human ACLY = system: human ACLY; parameters: method as in PMID 30944472; settings: cited from earlier work
[4] = system: mice fed on a high-fat diet; parameters: method as in PMID 17383874; settings: cited from earlier work
ACLY [5] = target: T1, ACLY; assay: Thermal shift assay (Sypro Orange); assay type: binding; settings: DMSO control 54.5 °C
Experimental: The thermal shift assay was conducted in a real-time PCR machine (Bio-Rad, Hercules, CA, USA). Sypro Orange fluorescent dye was used to monitor protein folding/unfolding. Purified ACLY and compound solutions were preincubated in low-profile PCR tubes for 15 min at room temperature, and then Sypro Orange was added and incubated for another 15 min on ice. The total volume was 20 μL. The final concentration of ACLY was 1.45 μM and Sypro Orange was 12.5×. The PCR tubes were heated from 25 to 90 °C at a heating rate of 0.5 °C/10 s. The fluorescence intensity changes in each well were recorded. Tm (transition midpoint) was read from the melting curve.

ACLY [6] = target: T1, ACLY; assay: Western blotting analysis of ACLY thermal stability; assay type: binding
Experimental: Purified ACLY was preincubated with compounds or DMSO in tubes at room temperature for 15 min. The final concentration of ACLY was 0.58 μM. Then the solution was aliquoted into 200 μL PCR tubes and heated at the indicated temperature for 3 min. […] The SDS–PAGE samples were prepared in 1× loading buffer. A separation gel (8%) and stacking gel (5%) were used to separate and transfer target proteins onto PVDF membranes (0.45 μm). The membranes were blocked at room temperature for 1 h with a blocking solution (Beyotime, Shanghai, China), followed by addition of a primary antibody at room temperature for another 2 h. HRP-linked IgG was used as the secondary antibody and incubated at room temperature for 1 h. Protein bands were imaged by molecular imager ChemiDoc XRS+ (Bio-rad, Hercules, CA, USA).

ACLY [7] = target: T1, ACLY; assay: Enzymatic kinetic studies (Michaelis-Menten, Lineweaver-Burk); assay type: biochemical
Experimental: The inhibition profile of herbacetin against ACLY was determined by the Michaelis–Menten equation and Lineweaver–Burk curve. Reaction rates were recorded separately at different concentrations of substrates with various inhibitor concentrations. […] For competitive inhibition, Vmax is constant, Km decreases; for noncompetitive inhibition, Km is constant, Vmax decreases; for uncompetitive inhibition, both Vmax and Km decrease, while Km/Vmax is constant. Ki values could be calculated according to the following equations. [table]

[8] = natural ACLY inhibitors, discussion, no reference given

Compound: O=C(O)[C@H]1O[C@@H](Oc2cc(O)c3c(=O)cc(-c4ccc(O)c(O)c4)oc3c2)[C@H](O)[C@@H](O)[C@@H]1O [compound 5, Luteolin 7-O-glucuronide]
IC50 (ACLY [1]): 1470 ± 200 nM

Compound: O=C(O)CC(O)(C(=O)O)C(O)C(=O)O (centres unmarked) [Hydroxycitric acid]
Ki (ACLY [2]): 3000 nM
Ki (ACLY [2]; [8]): 300000 nM

Compound: O=c1cc(-c2ccc(O)c(O)c2)oc2cc(O)c([C@@H]3O[C@H](CO)[C@@H](O)[C@H](O)[C@H]3O)c(O)c12 [compound 14, Isoorientin]
IC50 (ACLY [1]): 1860 ± 290 nM

Compound: COc1cc(-c2oc3cc(O)cc(O)c3c(=O)c2O)ccc1O [compound 44, Isorhamnetin]
IC50 (ACLY [1]): 49700 ± 14800 nM

Compound: O=c1c(O)c(-c2ccc(O)c(O)c2)oc2cc(O)cc(O)c12 [compound 29, Quercetin]
IC50 (ACLY [1]): 860 ± 50 nM
inhibition rate (ACLY [1]): 91.09%
fold more active compared with kaempferol (ACLY [1]; ratio of IC50 values): 10 fold
critical aggregation concentration (CAC) [3]: 6.47 µM

Compound: O=C(/C=C/c1ccc(O)c(O)c1)O[C@@H]1C[C@](O)(C(=O)O)C[C@@H](OC(=O)/C=C/c2ccc(O)c(O)c2)[C@H]1O [isochlorogenic acid A]
IC50 (ACLY [2]; [8]): 100 nM

Compound: antimycin
Ki (ACLY [2]; [8]): 4000 nM

Compound: COC(=O)c1cc(Cl)c(O)c(S(=O)(=O)Nc2cc(-c3ccccc3)c(F)cc2F)c1 [NDI–091143]
potency (human ACLY): nanomolar potency

Compound: COc1ccc(-c2ccccc2)cc1NS(=O)(=O)c1cc(Cl)cc(Cl)c1O [BMS–303141]
plasma cholesterol, triglyceride and glucose levels [4]: lowered plasma cholesterol, triglyceride and glucose levels

Compound: O=c1c(O)c(-c2cc(O)c(O)c(O)c2)oc2cc(O)cc(O)c12 [compound 89, Myricetin]
IC50 (ACLY [1]): 570 ± 30 nM
critical aggregation concentration (CAC) [3]: 1.82 µM

Compound: C[C@@H]1C[C@H]2O[C@@H]2/C=C\C=C\C(=O)Cc2c(Cl)c(O)cc(O)c2C(=O)O1 [radicicol]
Ki (ACLY [2]; [8]): 10000 nM

Compound: anthrone
IC50 (ACLY [2]; [8]): 280 nM

Compound: O=C(O)[C@H]1O[C@@H](Oc2cc3oc(-c4ccc(O)cc4)cc(=O)c3c(O)c2O)[C@H](O)[C@@H](O)[C@@H]1O [compound 53, Scutellarin]
IC50 (ACLY [1]): 3770 ± 260 nM

Further lines, results first:

IC50 (ACLY [1]): 2540 ± 250 nM
Compound: O=C1c2c(O)cc(O)cc2OC(c2ccc(O)c(O)c2)C1O (centres unmarked) [compound 19, Taxifolin]

IC50 (ACLY [1]): 710 ± 60 nM
inhibition rate (ACLY [1]): 91.80%
Compound: O=c1cc(-c2ccc(O)cc2)oc2cc(O)c(O)c(O)c12 [compound 52, Scutellarein]

IC50 (ACLY [1]): 19100 ± 11600 nM
Compound: O=c1cc(-c2ccc(O)cc2)oc2cc(O)cc(O)c12 [compound 21, Apigenin]

IC50 (ACLY [1]): 31600 ± 9450 nM
Compound: Oc1cc(O)c2c(c1)O[C@H](c1ccc(O)c(O)c1)[C@H](O)C2 [compound 75, Epicatechin]

IC50 (ACLY [1]): 23600 ± 19200 nM
Compound: Oc1cc(O)c2c(c1)OC(c1ccc(O)c(O)c1)C(O)C2 (centres unmarked) [compound 73, Catechin]

IC50 (ACLY [1]): 310 ± 20 nM
Compound: O=c1c(O)c(-c2ccc(O)c(O)c2)oc2c(O)c(O)cc(O)c12 [compound 93, Gossypetin]

IC50 (ACLY [1]): 1430 ± 440 nM
Compound: C[C@@H]1O[C@@H](O[C@H]2[C@H](Oc3cc(O)c4c(=O)cc(-c5ccc(O)c(O)c5)oc4c3)O[C@H](CO)[C@@H](O)[C@@H]2O)[C@H](O)[C@H](O)[C@H]1O [compound 15, Lonicerin]

IC50 (ACLY [1]): 10200 ± 1070 nM
Compound: O=c1c(O)c(-c2ccc(O)cc2)oc2cc(O)cc(O)c12 [compound 30, Kaempferol]

IC50 (ACLY [1]): 1530 ± 80 nM
Compound: O=c1c(O[C@@H]2O[C@H](CO)[C@H](O)[C@H](O)[C@H]2O)c(-c2ccc(O)c(O)c2)oc2cc(O)cc(O)c12 [compound 6, Hyperoside]

IC50 (ACLY [1]): 570 ± 90 nM
Compound: C[C@@H]1O[C@@H](Oc2cc(O)c3c(=O)c(O)c(-c4ccc(O)c(O)c4)oc3c2)[C@H](O)[C@H](O)[C@H]1O [compound 106, 7-(α-L-Rhamnopyranosyloxy)-2-(3,4-dihydroxyphenyl)-3,5-dihydroxy-4H-1-benzopyran-4-one]

IC50 (ACLY [1]): 4070 ± 690 nM
Compound: O=c1c(O)c(-c2ccc(O)cc2O)oc2cc(O)cc(O)c12 [compound 87, Morin]

IC50 (ACLY [1]): 1290 ± 140 nM
Compound: Oc1cc(O)c2cc(O)c(-c3ccc(O)c(O)c3)[o+]c2c1 [compound 74, Cyanidin]

IC50 (ACLY [1]): 500 ± 80 nM
inhibition rate (ACLY [1]): 96.07%
fold more active compared with kaempferol (ACLY [1]; ratio of IC50 values): 20 fold
DMR responses (aggregation state) ([3]; up to 100 μM): negligible DMR responses
Tm of ACLY (ACLY [5]; 40 μM herbacetin): 55.5 °C
Tm of ACLY (ACLY [5]; 200 μM herbacetin): 56.5 °C
stability of ACLY at a temperature gradient vs control (ACLY [6]; 200 μM, significant at 52, 57, 60 and 62 °C): more stable
isothermal dose-response of ACLY stability (ACLY [6]; 57 °C, different concentrations): concentration–dependent effect
Ki (ACLY [7]; ATP as substrate): 290 nM
Ki (ACLY [7]; CoA as substrate): 190 nM
Ki (ACLY [7]; citric acid (CA) as substrate): 110 nM
inhibition pattern (ACLY [7]; towards CA, ATP and CoA): noncompetitive inhibitor
Compound: O=c1c(O)c(-c2ccc(O)cc2)oc2c(O)c(O)cc(O)c12 [compound 18, Herbacetin]

IC50 (ACLY [1]): 2140 ± 120 nM
Compound: O=c1c(O[C@@H]2O[C@H](CO)[C@@H](O)[C@H](O)[C@H]2O)c(-c2ccc(O)c(O)c2)oc2cc(O)cc(O)c12 [compound 20, Isoquercetin]

IC50 (ACLY [1]): 640 ± 130 nM
inhibition rate (ACLY [1]): 88.28%
activity fold higher than that of apigenin (ACLY [1]; ratio of IC50 values): 30 fold
Compound: O=c1cc(-c2ccc(O)c(O)c2)oc2cc(O)cc(O)c12 [compound 51, Luteolin]
